Experimental data published in PubChem BioAssay AID2060888 (Molecular Pharmacology Branch, DTP, NCI, 2025).

Test system: 695427-040-R-J1-PDC complex spheroid viability
Assay: Anticancer human tumor 695427-040-R-J1-PDC patient-derived colon adenocarcinoma cell line growth inhibition [RAS]
Settings: for viability, T/C: stronger effect = lower value
From the text: RAS pathway inhibitors in Combinations in Complex Spheroids
A high-throughput screen of multi-cell type tumor spheroids was designed to identify active combinations of RAS pathway inhibitors and targeted small molecules. Complex spheroids include a stromal component modeled by human endothelial cells (HUVEC) and fibroblasts modeled by human mesenchymal stem cells (MSCs). The concentration ranges selected for each drug and investigational agent were based upon clinically achievable concentrations if the clinical Cmax of the agent was known.
Compounds. The drugs and investigational agents: abemaciclib (NSC768073), cobimetinib (NSC768068), divarasib (GDC6063, NSC841802), docetaxel (NSC628503), GDC-1971 (RLY-1971, NSC841576), gemcitabine (NSC613327), inavolisib (NSC800729), ipatasertib (NSC767898), KB-0742 (NSC834161), MRTX-1133 (NSC836407), osimertinib (NSC779217), RMC-4630 (NSC839698), RMC-6236 (NSC851965), RMC-6291 (NSC852671), Ro-3306 (NSC812927), sapanisertib (NSC764658), SN-38 (NSC673596), staurosporine (NSC755774), SY5609 (NSC837396), and tovorafenib (DAY101, NSC766906), were obtained from the National Cancer Institute (NCI) Developmental Therapeutics Program Chemical Repository. The FDA-approved anticancer drug set is available from the NCI Developmental Therapeutics Program. […] The stock solutions were prepared in dimethyl sulfoxide (DMSO, Sigma-Aldrich, St. Louis, MO, cat. D2650) at 800-fold the tested concentration and stored at -70 degrees C prior to their use. All drugs and investigational agents were tested over a range starting from a high concentration at or near the clinical Cmax and decreasing in half-log increments. If the clinical Cmax for an agent had not been determined, the highest concentration tested was 10 microM.
Cell Culture. All cells were maintained in an incubator at 37 degrees C and 5% CO2 with 95% humidity. The PDC lines were cultured according to standard operating procedures established by the NCI PDMR. All PDCs were thawed and cultured in Matrigel-coated flasks prepared with a working solution of 1X Ham's F-12 nutrient mix, without supplementation (Invitrogen, Waltham, MA, cat. 11765054), 100 U/mL penicillin-streptomycin (Invitrogen, cat. 15140122), and 2.5% Matrigel (Corning Inc., Corning, NY, cat. 354248) for the first three passages. The 362531-283-R-J2-PDC and 782815-120-R-J1-PDC lines were cultured in 6C/Colon 1B media, which includes advanced DMEM/F-12 (Thermo Fisher Scientific, cat. 12634028), 10 mM HEPES (Thermo Fisher Scientific, cat. 15630080), 1X GlutaMAX supplement (Thermo Fisher Scientific, cat. 35050061), 0.1 mg/mL primocin (InvivoGen, San Diego, CA, cat. ant-pm-2), 10% defined fetal bovine serum, heat inactivated (HyClone Laboratories Inc., Logan, UT, cat. SH30070.03HI), 50% L-WRN conditioned media (ATCC, cat. CRL-3276), 1.25 mM N-Acetyl-L-cysteine (Sigma-Aldrich, cat. A9165), 10 mM nicotinamide (Sigma-Aldrich, cat. N0636), 1X B-27 supplement (Thermo Fisher Scientific, cat. 17504044), 1X N-2 supplement (Thermo Fisher Scientific, cat. 17502048), 50 ng/mL human EGF (Thermo Fisher Scientific, cat. PHG0311), and 10 microM Y-27632 dihydrochloride (Tocris Bioscience, cat. 1254). The K12877-001-R-J1-PDC line was cultured in 6I media, which includes all 6C/Colon 1B media plus 10 ng/mL human FGF-10 (PeproTech, cat. 100-26), 1 ng/mL human FGF-2 (PeproTech, cat. 100-18B), 1 µM prostaglandin E2 (Tocris Bioscience, cat. 2296), […] hydrocortisone (Sigma-Aldrich, cat. H4001), and […] bovine insulin (Sigma-Aldrich, cat. I6634). The K86415-001-R-J1-PDC line was cultured in 6D media, which includes all 6C/Colon 1B media components minus the L-WRN conditioned media. The 485176-168-R4-J1-PDC was cultured in PANC media, which includes all 6C/Colon 1B media plus 100 ng/mL human FGF-10 (PeproTech, cat. 100-26), 500 nM SB-431542 (Selleckchem, cat. S1067), and 10 nM gastrin (Tocris Bioscience, cat. 3006). […]

[1] = curve of first compound, second compound 0.0316 µM
[2] = curve of first compound, second compound 0.1 µM
[3] = curve of first compound, second compound 0.316 µM
[4] = curve of first compound, second compound 1 µM
[5] = second compound 0.0316 µM, first compound 0.0316 µM
[6] = second compound 0.0316 µM, first compound 0.1 µM
[7] = second compound 0.0316 µM, first compound 0.316 µM
[8] = second compound 0.0316 µM, first compound 1 µM
[9] = second compound 0.0316 µM, first compound 3.16 µM
[10] = second compound 0.0316 µM, first compound 10 µM
[11] = second compound 0.1 µM, first compound 0.0316 µM
[12] = second compound 0.1 µM, first compound 0.1 µM
[13] = second compound 0.1 µM, first compound 0.316 µM
[14] = second compound 0.1 µM, first compound 1 µM
[15] = second compound 0.1 µM, first compound 3.16 µM
[16] = second compound 0.1 µM, first compound 10 µM
[17] = second compound 0.316 µM, first compound 0.0316 µM
[18] = second compound 0.316 µM, first compound 0.1 µM
[19] = second compound 0.316 µM, first compound 0.316 µM
[20] = second compound 0.316 µM, first compound 1 µM
[21] = second compound 0.316 µM, first compound 3.16 µM
[22] = second compound 0.316 µM, first compound 10 µM
[23] = second compound 1 µM, first compound 0.0316 µM
[24] = second compound 1 µM, first compound 0.1 µM
[25] = second compound 1 µM, first compound 0.316 µM
[26] = second compound 1 µM, first compound 1 µM
[27] = second compound 1 µM, first compound 3.16 µM
[28] = second compound 1 µM, first compound 10 µM
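Also: viability read after seven days of drug exposure.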
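For viability, T/C in this document: 100% = DMSO vehicle control viability.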

Compound: CC1(O)CCCC1n1c(=O)c(C(F)F)cc2cnc(NC3CCN(S(C)(=O)=O)CC3)nc21 (stereo unspecified) + C=CC(=O)N1CCN(c2nc(OCC3CCCN3C)nc3c(F)c(-c4nc(N)cc(C)c4C(F)(F)F)c(Cl)cc23)C(C)C1
- IC50 (curve of first compound, second compound 0.00316 µM): > 10000 nM
- IC50 (curve of first compound, second compound 0.01 µM): > 10000 nM
- IC50 [1]: > 10000 nM
- IC50 [2]: > 10000 nM
- IC50 [3]: > 10000 nM
- IC50 [4]: 8820 nM
- viability, T/C (second compound 0.00316 µM, first compound 0.0316 µM): 95.4%
- viability, T/C (second compound 0.00316 µM, first compound 0.1 µM): 93.5%
- viability, T/C (second compound 0.00316 µM, first compound 0.316 µM): 101%
- viability, T/C (second compound 0.00316 µM, first compound 1 µM): 111%
- viability, T/C (second compound 0.00316 µM, first compound 3.16 µM): 116%
- viability, T/C (second compound 0.00316 µM, first compound 10 µM): 59.6%
- viability, T/C (second compound 0.01 µM, first compound 0.0316 µM): 109%
- viability, T/C (second compound 0.01 µM, first compound 0.1 µM): 91.8%
- viability, T/C (second compound 0.01 µM, first compound 0.316 µM): 104%
- viability, T/C (second compound 0.01 µM, first compound 1 µM): 109%
- viability, T/C (second compound 0.01 µM, first compound 3.16 µM): 124%
- viability, T/C (second compound 0.01 µM, first compound 10 µM): 58.1%
- viability, T/C [5]: 99.5%
- viability, T/C [6]: 96%
- viability, T/C [7]: 107%
- viability, T/C [8]: 110%
- viability, T/C [9]: 122%
- viability, T/C [10]: 57.6%
- viability, T/C [11]: 94.4%
- viability, T/C [12]: 95.3%
- viability, T/C [13]: 107%
- viability, T/C [14]: 112%
- viability, T/C [15]: 126%
- viability, T/C [16]: 56.4%
- viability, T/C [17]: 99.6%
- viability, T/C [18]: 102%
- viability, T/C [19]: 97.5%
- viability, T/C [20]: 120%
- viability, T/C [21]: 124%
- viability, T/C [22]: 60.3%
- viability, T/C [23]: 97.5%
- viability, T/C [24]: 94.5%
- viability, T/C [25]: 101%
- viability, T/C [26]: 118%
- viability, T/C [27]: 120%
- viability, T/C [28]: 43.1%

Compound: NC1c2ccccc2OC12CCN(c1cnc3c(N4CCCc5ncccc54)n[nH]c3n1)CC2 (stereo unspecified) + C#Cc1c(F)ccc2cc(O)cc(-c3ncc4c(N5CC6CCC(C5)N6)nc(OCC56CCCN5CC(F)C6)nc4c3F)c12
- IC50 [1]: 1180 nM
- IC50 [2]: 583 nM
- IC50 [3]: 141 nM
- IC50 [4]: 50.8 nM
- IC50 (curve of first compound, second compound 3.16 µM): < 31.6 nM
- IC50 (curve of first compound, second compound 10 µM): < 31.6 nM
- viability, T/C [5]: 69.6%
- viability, T/C [6]: 65.6%
- viability, T/C [7]: 57.4%
- viability, T/C [8]: 50%
- viability, T/C [9]: 45.2%
- viability, T/C [10]: 33.6%
- viability, T/C [11]: 69%
- viability, T/C [12]: 61.8%
- viability, T/C [13]: 55.9%
- viability, T/C [14]: 45.1%
- viability, T/C [15]: 34.9%
- viability, T/C [16]: 23.5%
- viability, T/C [17]: 66.8%
- viability, T/C [18]: 52.1%
- viability, T/C [19]: 40.8%
- viability, T/C [20]: 31.9%
- viability, T/C [21]: 25.5%
- viability, T/C [22]: 12.8%
- viability, T/C [23]: 55.8%
- viability, T/C [24]: 40.9%
- viability, T/C [25]: 33.6%
- viability, T/C [26]: 25.7%
- viability, T/C [27]: 15.8%
- viability, T/C [28]: 8.19%
- viability, T/C (second compound 3.16 µM, first compound 0.0316 µM): 39.6%
- viability, T/C (second compound 3.16 µM, first compound 0.1 µM): 27.4%
- viability, T/C (second compound 3.16 µM, first compound 0.316 µM): 23.4%
- viability, T/C (second compound 3.16 µM, first compound 1 µM): 15.9%
- viability, T/C (second compound 3.16 µM, first compound 3.16 µM): 12.2%
- viability, T/C (second compound 3.16 µM, first compound 10 µM): 5.36%
- viability, T/C (second compound 10 µM, first compound 0.0316 µM): 23.9%
- viability, T/C (second compound 10 µM, first compound 0.1 µM): 18.9%
- viability, T/C (second compound 10 µM, first compound 0.316 µM): 10.8%
- viability, T/C (second compound 10 µM, first compound 1 µM): 7.6%
- viability, T/C (second compound 10 µM, first compound 3.16 µM): 4.71%
- viability, T/C (second compound 10 µM, first compound 10 µM): 1.43%

Compound: CCc1c2c(nc3ccc(O)cc13)-c1cc3c(c(=O)n1C2)COC(=O)[C@]3(O)CC
- viability, T/C (compound 0.000949 µM): 91.9% [middle of 4 runs]
- viability, T/C (compound 0.003 µM): 96.8% [middle of 4 runs]
- viability, T/C (compound 0.00949 µM): 86.8% [middle of 4 runs]
- viability, T/C (compound 0.03 µM): 73.4% [middle of 4 runs]
- viability, T/C (compound 0.0949 µM): 52.8% [middle of 4 runs]
- viability, T/C (compound 0.3 µM): 34.5% [middle of 4 runs]
- IC50 (curve of compound): 114 nM [middle of 4 runs]
